target: T1, Human thrombin (Homo sapiens, UniProt P00734); experiment: thrombin protease inhibition assay, chromogenic substrate S-2238; type: biochemical; conditions: 3 nM human thrombin, 125 μM S-2238, 10 min pre-incubation, RT
T1 construct: purchased Haematologic Technologies Inc
Method: Compounds described herein can be assayed, by a variety of methods known in the art and described herein, for inhibition of biological activity, e.g., protease activity, of a variety of proteins, e.g., thrombin.
The thrombin activity reported herein (e.g., Table A) was obtained as follows. […] Thrombin was assayed in buffer containing 0.05 M Tris (pH 7.4), 0.015 M NaCl and 0.01% PEG-8000. The final concentration of enzyme used was 3 nM thrombin. […] All assays were performed in 96-well microtiter plates at room temperature (RT). […] Inhibitor IC50 values were determined by adding test compound as ten point, three-fold serial dilutions in buffer solution, as known in the art. The plate was read at 10 minutes after substrate addition. The IC50 was calculated by plotting the percent (%) inhibition against compound concentration and fitting the data to a constrained four parameter sigmoidal curve, as known in the art.

`COc1ccc(C(=O)n2nc(C3CCOCC3)c(F)c2NCc2ccc(Cl)s2)c(OC)c1` [Compound 36, N-[(5-chlorothiophen-2-yl)methyl]-1-(2,4-dimethoxybenzoyl)-4-fluoro-3-(oxan-4-yl)-1H-pyrazol-5-amine] and `COc1ccc(C(=O)n2nc(C3CCNCC3)c(F)c2NCc2ccc(Cl)s2)c(OC)c1` [Compound 37, N-[(5-chlorothiophen-2-yl)methyl]-1-(2,4-dimethoxybenzoyl)-4-fluoro-3-(piperidin-4-yl)-1H-pyrazol-5-amine] cannot be ordered by IC50: less than 100 nM for the first, less than 100 nM for the second.

`COCC(C)(C)C(=O)n1nc(C2CCNCC2)c(F)c1NCc1ccc(Cl)s1` [Compound 9, 1-(5-[(5-chlorothiophen-2-yl)methyl]amino-4-fluoro-3-(piperidin-4-yl)-1H-pyrazol-1-yl)-3-methoxy-2,2-dimethylpropan-1-one] and `O=C(c1ccoc1)n1nc(C2CCOCC2)c(F)c1NCc1ccc(Cl)s1` [Compound 49, N-[(5-chlorothiophen-2-yl)methyl]-4-fluoro-1-(furan-3-carbonyl)-3-(oxan-4-yl)-1H-pyrazol-5-amine] cannot be ordered by IC50: less than 100 nM for the first, less than 100 nM for the second.

`COc1ccccc1C(=O)n1nc(-c2ccc3c(c2)CCCC3=O)c(F)c1NCc1ccc(Cl)s1` [Compound 31, 6-(5-[(5-chlorothiophen-2-yl)methyl]amino-4-fluoro-1-(2-methoxybenzoyl)-1H-pyrazol-3-yl)-1,2,3,4-tetrahydronaphthalen-1-one] and `CC(C)(C)C(=O)n1nc(-c2ccc3c(c2)CCCC3=O)c(F)c1NCc1ccc(Cl)s1` [Compound 29, 6-(5-[(5-chlorothiophen-2-yl)methyl]amino-1-(2,2-dimethylpropanoyl)-4-fluoro-1H-pyrazol-3-yl)-1,2,3,4-tetrahydronaphthalen-1-one] cannot be ordered by IC50: less than 100 nM for the first, less than 100 nM for the second.

`COC(C)(C)C(=O)n1nc(-c2ccccc2)c(F)c1NCc1ccc(Cl)s1` [Compound 12, 1-(5-[(5-chlorothiophen-2-yl)methyl]amino-4-fluoro-3-phenyl-1H-pyrazol-1-yl)-2-methoxy-2-methylpropan-1-one] and `CC(C)(O)C(=O)n1nc(-c2ccccc2)c(F)c1NCc1ccc(Cl)s1` [Compound 11, 1-(5-[(5-chlorothiophen-2-yl)methyl]amino-4-fluoro-3-phenyl-1H-pyrazol-1-yl)-2-hydroxy-2-methylpropan-1-one] cannot be ordered by IC50: less than 100 nM for the first, less than 100 nM for the second.

Compared with `COc1ccccc1C(=O)n1nc(-c2ccccn2)c(F)c1NCc1ccc(Cl)s1` [Compound 43, N-[(5-chlorothiophen-2-yl)methyl]-4-fluoro-1-(2-methoxybenzoyl)-3-(pyridin-2-yl)-1H-pyrazol-5-amine], `O=C1CCCN1c1ccc(-c2nn(C(=O)c3ccoc3)c(NCc3ccc(Cl)s3)c2F)cc1` [Compound 20, 1-[4-(5-[(5-chlorothiophen-2-yl)methyl]amino-4-fluoro-1-(furan-3-carbonyl)-1H-pyrazol-3-yl)phenyl]pyrrolidin-2-one] is higher in IC50: less than 100 nM for the first, greater than 1000 nM for the second.

`CN(C)c1cccc2c(S(=O)(=O)N3CCC(c4nn(C(=O)C(C)(C)CO)c(NCc5ccc(Cl)s5)c4F)CC3)cccc12` [Compound 1, 1-(5-[(5-chlorothiophen-2-yl)methyl]amino-3-(1-[5-(dimethylamino)naphthalen-1-yl]sulfonylpiperidin-4-yl)-4-fluoro-1H-pyrazol-1-yl)-3-hydroxy-2,2-dimethylpropan-1-one] and `O=C(c1ccc(N2CCOCC2)cc1)n1nc(C2CCOCC2)c(F)c1NCc1ccc(Cl)s1` [Compound 53, N-[(5-chlorothiophen-2-yl)methyl]-4-fluoro-1-[4-(morpholin-4-yl)benzoyl]-3-(oxan-4-yl)-1H-pyrazol-5-amine] cannot be ordered by IC50: less than 100 nM for the first, less than 100 nM for the second.

`COc1ccc(C(=O)n2nc(NCc3ccc(Cl)s3)c(F)c2C2CCOCC2)c(OC)c1` [Compound 39, N-[(5-chlorothiophen-2-yl)methyl]-1-(2,4-dimethoxybenzoyl)-4-fluoro-5-(oxan-4-yl)-1H-pyrazol-3-amine] showed an IC50 greater than 1000 nM.

Source: patent publication US9951025B2, “Halogenopyrazoles as inhibitors of thrombin” (VERSEON CORPORATION, priority 2013, dated 2018)
